Earlier results as cited in patent publication US20150024055A1, “ENHANCED IMMEDIATE RELEASE FORMULATIONS OF TOPIRAMATE” (Supernus Pharmaceuticals, Inc., priority 2006, published 2015).

How the values were obtained:
[1] = in vivo

- time to reach peak plasma levels [1]: about two
- solubility in organic solvents (acetone, dimethylsulfoxide and ethanol): soluble
- solubility in alkaline solutions (alkaline solutions containing sodium hydroxide or sodium phosphate): soluble
- solubility of topiramate in water (water, room temperature): about 9.8 mg/ml
Compound: CC1(C)O[C@@H]2[C@@H](CO[C@@]3(COS(N)(=O)=O)OC(C)(C)O[C@@H]23)O1 [Topiramate]
